# Publication PMC10253456, “Investigating the Contribution of Major Drug-Metabolising Enzymes to Possum-Specific Fertility Control” (International Journal of Molecular Sciences, 2023)
# Read-outs that look alike come from different tables or passages of the source.
# Key:
# UGT2B (heading: UGT2B4) [1] = assay: p-nitrophenol glucuronidation activity in possum liver microsomes; assay type: biochemical, possum (Trichosurus vulpecula); details: possum (Trichosurus vulpecula), pH 7.4, compound at estimated IC50, read-out: % of control (UGT2B4 catalytic activity at IC50)
# UGT2B [2] = assay: as above; assay type: biochemical, possum (Trichosurus vulpecula); details: for p-nitrophenol glucuronidation (UGT2B) activity, % of the control: at estimated IC50 and 2-fold IC50 values
# CYP3A [3] = details: avian
# UGT2B [4] = details: avian
# testosterone metabolism = test system: testosterone metabolism; design: method as in PMID 19336903; details: pooled human liver microsomes; cited from earlier work
# UGT2B (heading: UGT2B4) [5] = assay: in vitro; details: BALB/c, mouse, pH 7.4
# UGT2B (heading: UGT2B4) [6] = assay: in vitro; details: avian (mallards and a swan), pH 7.4
# UGT2B [7] = assay: p-nitrophenol glucuronidation activity in mouse liver microsomes
# CYP3A [8] = assay: CYP3A catalytic activity (erythromycin N-demethylation) in mouse liver microsomes; details: for Percent control catalytic activity at estimated IC50: compounds without reported IC50 at 1 µM; for CYP3A catalytic activity, % of the control: at both estimated IC50 and 2-fold IC50 values (ketoconazole 2.5 and 5 µM)
# CYP3A [9] = assay: CYP3A catalytic activity (erythromycin N-demethylation) in possum liver microsomes; details: for Percent control catalytic activity at estimated IC50: compounds without reported IC50 at 1 µM
# CYP3A [10] = assay: CYP3A catalytic activity (erythromycin N-demethylation) in pooled human liver microsomes; details: for CYP3A catalytic activity, % of the control: at both estimated IC50 and 2-fold IC50 values (ketoconazole 2.5 and 5 µM)
# [11] = test system: fathead minnows (Pimephales promelas); design: method as in PMID 17517636; details: EE2 5–6 ng/L; cited from earlier work
# mice = details: EE2 5 µg/kg/day; cited from earlier work
# [12] = test system: cineole metabolism in wild possum liver microsomes; design: method as in PMID 12593759; details: 5 µM ketoconazole; cited from earlier work
# [13] = test system: erythromycin N-demethylation; design: method as in PMID 15342469; details: pooled human liver microsomes; read-out: concentration reducing erythromycin N-demethylation by ~50% of the control; cited from earlier work
# CYP3A [14] = assay: CYP3A catalytic activity with midazolam and triazolam as substrates; details: erythromycin vs midazolam and triazolam
# UGT2B [15] = assay: p-nitrophenol glucuronidation activity in pooled human liver microsomes
# [16] = compound at estimated 2-fold IC50
# [17] = compound at estimated 2-fold IC50 (5 µM where none reported)
# [18] = mouse, compound at estimated 2-fold IC50
# [19] = mouse liver microsomes, initial screen n=1
# [20] = mouse, compound at estimated 2-fold IC50 (5 µM where none reported)
# [21] = possum liver microsomes, initial screen n=1
# [22] = possum, compound at estimated 2-fold IC50 (5 µM where none reported)
smiles,measurement,setting,value
O=c1cc(-c2ccccc2)oc2cc(O)ccc12 [7-Hydroxyflavone],activity at 30 min,UGT2B (heading: UGT2B4) [1],100%
same,% of control (UGT2B4 catalytic activity at 2-fold IC50),UGT2B [2]; [16],101 % of control
same,UGT2B4 catalytic activity at 2-fold IC50,UGT2B [2]; [16],3.92 ± 0.02 µmol/mg/min
same,"CYP3A catalytic activity, % of the control",CYP3A [3]; at both estimated IC50 and 2-fold IC50 values (or 1 and 5 µM),> 83 % of the control
same,% of control (catalytic activity at 2-fold IC50),CYP3A [3]; [17],103 % of control
same,Catalytic activity at 2-fold IC50,CYP3A [3]; [17],0.42 ± 0.07 nmol/mg/min
same,% of control (UGT2B4 catalytic activity at 2-fold IC50),UGT2B [4]; [16],92 % of control
same,UGT2B4 catalytic activity at 2-fold IC50,UGT2B [4]; [16],0.38 ± 0.12 µmol/mg/min
same,IC50,testosterone metabolism,> 100000 nM
same,activity,UGT2B (heading: UGT2B4) [5],100%
same,activity at 30 min,UGT2B (heading: UGT2B4) [6],150%
same,% of control (UGT2B4 catalytic activity at 2-fold IC50),UGT2B [7]; [18],101 % of control
same,UGT2B4 catalytic activity at 2-fold IC50,UGT2B [7]; [18],2.55 ± 0.18 µmol/mg/min
same,Percent control catalytic activity at estimated IC50,CYP3A [8]; [19],97 percent control
same,Percent control catalytic activity at estimated 2-fold IC50,"CYP3A [8]; mouse liver microsomes, initial screen n=1, compounds without reported IC50 at 5 µM",97 percent control
same,"CYP3A catalytic activity, % of the control",CYP3A [8]; mouse,> 83 % of the control
same,% of control (catalytic activity at 2-fold IC50),CYP3A [8]; [20],90 % of control
same,Catalytic activity at 2-fold IC50,CYP3A [8]; [20],0.40 ± 0.04 nmol/mg/min
same,Percent control catalytic activity at estimated IC50,CYP3A [9]; [21],81 percent control
same,Percent control catalytic activity at estimated 2-fold IC50,"CYP3A [9]; possum liver microsomes, initial screen n=1, compounds without reported IC50 at 5 µM",78 percent control
same,"CYP3A catalytic activity, % of the control","CYP3A [9]; possum, at both estimated IC50 and 2-fold IC50 values (or 1 and 5 µM)",> 83 % of the control
same,% of control (catalytic activity at 2-fold IC50),CYP3A [9]; [22],95 % of control
same,Catalytic activity at 2-fold IC50,CYP3A [9]; [22],0.38 ± 0.08 nmol/mg/min
same,"reduced catalytic activity of possum CYP3A, % of the control","CYP3A [9]; possum, mainly at 5 µM or an estimated 2-fold IC50, not significantly different",~ 35 % of the control
same,"CYP3A catalytic activity, % of the control",CYP3A [10],> 83 % of the control
same,% of control (catalytic activity at 2-fold IC50),CYP3A [10]; [17],95 % of control
same,Catalytic activity at 2-fold IC50,CYP3A [10]; [17],0.61 nmol/mg/min
"C#C[C@]1(O)CC[C@H]2[C@@H]3CCc4cc(O)ccc4[C@H]3CC[C@@]21C [EE2, ethinylestradiol]",effect of exposure on fish,[11],feminisation of male fathead minnows
same,effect of developmental exposure on behaviour,mice,behavioural masculinisation
CC(=O)N1CCN(c2ccc(OCC3COC(Cn4ccnc4)(c4ccc(Cl)cc4Cl)O3)cc2)CC1 (stereo not drawn) [Ketoconazole],"p-nitrophenol glucuronidation (UGT2B) activity, % of the control",UGT2B [2],did not significantly reduce UGT2B activity to less than 50% of the control
same,"p-nitrophenol glucuronidation (UGT2B) activity, % of the control",UGT2B [2]; listed as ketoconazole,> 65 % of the control
same,"p-nitrophenol glucuronidation (UGT2B) activity, % of the control",UGT2B [4]; at estimated IC50 and 2-fold IC50 values,did not significantly reduce UGT2B activity to less than 50% of the control
same,"formation of all hydroxycineole metabolites (9-, 3-, 7-hydroxycineole), % of the control",[12],approximately 25 % of the control
same,IC50,[13],70 nM
same,"p-nitrophenol glucuronidation (UGT2B) activity, % of the control",UGT2B [7],did not significantly reduce UGT2B activity to less than 50% of the control
same,change in the inhibition of the CYP3A enzyme due to substrate choice (present study vs reported study),CYP3A [14],> 100 fold
same,"p-nitrophenol glucuronidation (UGT2B) activity, % of the control",UGT2B [15],did not significantly reduce UGT2B activity to less than 50% of the control
same,Percent control catalytic activity at estimated IC50,CYP3A [8]; [19],78 percent control
same,"CYP3A catalytic activity, % of the control",CYP3A [8]; mouse,< 50 % of the control
same,Percent control catalytic activity at estimated IC50,CYP3A [9]; [21],76 percent control
same,reduction of catalytic activity of possum CYP3A compared to the control,"CYP3A [9]; possum, ketoconazole 5 µM, not statistically significant",approximately 27%
same,"CYP3A catalytic activity, % of the control",CYP3A [10],80 % of the control
